This is an account of results in BindingDB's records for doi:10.7270/Q2251GJ9 (The Scripps Research Institute Molecular Screening Center, 2007).

pEC50: −log10 of the molar value. Structures can show the parent of a compound that is named as a salt.

The first experiment deals with Sphingosine 1-phosphate receptor 1 (Homo sapiens, UniProt P21453). Kind of experiment: direct activation of human S1P1 – cell-based, agonist mode, 60K MLSMR set, dose response (AID 468).
Sequence of Sphingosine 1-phosphate receptor 1 (P21453 whole entry): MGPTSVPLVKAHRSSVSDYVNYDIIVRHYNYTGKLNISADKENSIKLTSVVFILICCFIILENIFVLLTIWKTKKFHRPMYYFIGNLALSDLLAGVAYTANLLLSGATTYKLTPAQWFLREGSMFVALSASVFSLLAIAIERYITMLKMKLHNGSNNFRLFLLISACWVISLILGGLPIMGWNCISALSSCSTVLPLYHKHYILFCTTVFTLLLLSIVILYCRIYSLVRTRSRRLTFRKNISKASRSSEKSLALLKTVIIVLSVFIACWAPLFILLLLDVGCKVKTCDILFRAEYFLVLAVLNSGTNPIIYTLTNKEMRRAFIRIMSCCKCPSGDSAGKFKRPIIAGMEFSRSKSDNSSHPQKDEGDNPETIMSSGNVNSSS
Details: not given
In the case of `Cc1nc2sccn2c1-c1csc(NCc2ccccc2)n1` [4-(6-methyl-5-imidazo[2,1-b]thiazolyl)-N-(phenylmethyl)-2-thiazolamine], the pEC50 is 5.56.
On the same count and under the same terms, the result for `O=C(Nc1nccs1)c1ccc(S(=O)(=O)NCC2CCCCC2)cc1` [4-(Cyclohexylmethyl-sulfamoyl)-N-thiazol-2-yl-benzamide] reads 5.10.
`Cc1ccc2[nH]c3c(N4CCCCCC4)ncnc3c2c1` [4-(azepan-1-yl)-8-methyl-5H-pyrimido[5,4-b]indole] showed a pEC50 of 5.38.
In the case of `CCOC(=O)c1cnc(-n2nc(C)cc2C)nc1NC1CCCCC1` [4-(cyclohexylamino)-2-(3,5-dimethyl-1-pyrazolyl)-5-pyrimidinecarboxylic acid ethyl ester], the pEC50 was 5.20. This pEC50 and that of the compound before are within 0.2 log units of each other.
`CN(C)S(=O)(=O)c1ccc(C(=O)Nc2nc(-c3cccs3)cs2)cc1` [4-(dimethylsulfamoyl)-N-(4-thiophen-2-yl-1,3-thiazol-2-yl)benzamide] gave a pEC50 of less than 5.00.
Same read-out and setting: the result for `CCN(C1CCCCC1)S(=O)(=O)c1ccc(S(=O)(=O)NCc2ccncc2)cc1` [4-N-cyclohexyl-4-N-ethyl-1-N-(pyridin-4-ylmethyl)benzene-1,4-disulfonamide] reads 5.26.
Still for that read-out and setting: then `CCOC(=O)N1CCN(C(=O)C2CCN(c3ncnc4c3sc3cccc(F)c34)CC2)CC1` [4-[1-(9-fluorobenzothiopheno[3,2-d]pyrimidin-4-yl)isonipecotoyl]piperazine-1-carboxylic acid ethyl ester], with 5.23.
The same measure, in the same setting: then `CCCOC(=O)c1ccc(OCC(O)Cn2c(C)nc3ccccc32)cc1` (configuration not stated) [4-[2-hydroxy-3-(2-methyl-1-benzimidazolyl)propoxy]benzoic acid propyl ester], with 5.09.
Take `COC(=O)c1ccc(OCC(O)Cn2nnc3ccccc32)cc1` (configuration not stated) [4-[3-(1-benzotriazolyl)-2-hydroxypropoxy]benzoic acid methyl ester]: the pEC50 was less than 4.02.
As for `Cc1ccccc1-c1noc(-c2ccc(O)cc2)n1` [4-[3-(2-methylphenyl)-2H-1,2,4-oxadiazol-5-ylidene]-1-cyclohexa-2,5-dienone], the pEC50 is 5.07.
Same read-out and setting: the result for `O=C(c1cc(-c2ccc(O)cc2)on1)N1CCc2ccccc2C1` [4-[3-(3,4-dihydro-1H-isoquinolin-2-ylcarbonyl)-2H-1,2-oxazol-5-ylidene]cyclohexa-2,5-dien-1-one] reads 5.28; that for `O=C(Nc1cccc(C(F)(F)F)c1)N1CCC(c2nc(-c3ccc(F)cc3)no2)CC1` [4-[3-(4-Fluoro-phenyl)-[1,2,4]oxadiazol-5-yl]-piperidine-1-carboxylic acid (3-trifluoromethyl-phenyl)-amide], 5.13; that for `O=C(Nc1ccc(Cl)cc1)N1CCC(c2nc(-c3ccc(F)cc3)no2)CC1` [4-[3-(4-Fluoro-phenyl)-[1,2,4]oxadiazol-5-yl]-piperidine-1-carboxylic acid (4-chloro-phenyl)-amide], 5.30.
As for `Fc1ccc2[nH]c3c(N4CCN(Cc5ccc6c(c5)OCO6)CC4)ncnc3c2c1` [4-[4-(1,3-benzodioxol-5-ylmethyl)-1-piperazinyl]-8-fluoro-5H-pyrimido[5,4-b]indole], the pEC50 is 5.71.
As to `COc1cccc(N2CCN(c3ncnc4c3[nH]c3ccccc34)CC2C)c1` (configuration not stated) [4-[4-(3-methoxyphenyl)-3-methyl-1-piperazinyl]-5H-pyrimido[5,4-b]indole], the pEC50 was 5.43. This pEC50 lies 0.28 log units lower than the previous one.
The compound `Oc1ccc(N2CCN(c3ncnc4sc5c(c34)CCC5)CC2)cc1` [4-[4-(7,8-dihydro-6H-cyclopenta[4,5]thieno[1,2-c]pyrimidin-1-yl)-1-piperazinyl]phenol] gave a negative-log EC50 (pEC50) of 5.04.
Same read-out and setting: then `Clc1ccc(OCCN2CCN(c3ncnc4sccc34)CC2)cc1` [4-[4-[2-(4-chloranylphenoxy)ethyl]piperazin-1-yl]thieno[2,3-d]pyrimidine], with 6.97.
On the same count and under the same terms, the result for `CCOc1ccc(Cc2nc(-c3nonc3N)no2)cc1OCC` [4-[5-(3,4-diethoxybenzyl)-1,2,4-oxadiazol-3-yl]-1,2,5-oxadiazol-3-amine] reads 5.04; that for `CCOc1ccc(-c2nc(-c3ccncc3)no2)cc1OCC` [4-[5-(3,4-diethoxyphenyl)-1,2,4-oxadiazol-3-yl]pyridine], 6.68; that for `Cc1ccc(C(C)C)c(OCc2nc(-c3nonc3N)no2)c1` [4-[5-[(5-methyl-2-propan-2-yl-phenoxy)methyl]-1,2,4-oxadiazol-3-yl]-1,2,5-oxadiazol-3-amine], 5.79.
Consider `c1ccc(N2CCN(Cc3ccnc4ccccc34)CC2)cc1` [4-[(4-phenyl-1-piperazinyl)methyl]quinoline], for which the pEC50 is 5.03.
`CCN(CC)c1ccc2cc(NC(=O)CCC(=O)O)c(=O)oc2c1` [4-[[7-(diethylamino)-2-keto-chromen-3-yl]amino]-4-keto-butyric acid] had a negative-log EC50 (pEC50) of 5.01.
Same read-out and setting: the result for `CN(CC1CCCO1)S(=O)(=O)c1ccc(C(=O)Nc2nc(-c3ccccn3)cs2)cc1` (configuration not stated) [4-[methyl(2-oxolanylmethyl)sulfamoyl]-N-[4-(2-pyridinyl)-2-thiazolyl]benzamide] reads less than 5.00.
In turn, `CC(=O)c1c(C)[nH]c(C(=O)OCCCCN2C(=O)c3ccccc3C2=O)c1C` [4-acetyl-3,5-dimethyl-1H-pyrrole-2-carboxylic acid 4-(1,3-dioxo-2-isoindolyl)butyl ester] showed a pEC50 of 5.69.
Same read-out and setting: the result for `Cc1ccc2nc(C(F)(F)F)c(C#N)c(N)c2c1` [4-amino-6-methyl-2-(trifluoromethyl)-3-quinolinecarbonitrile] reads 5.12; that for `Nc1nonc1C(=O)NCCNCc1cc(Br)ccc1OCc1ccccc1F` [4-amino-N-[2-[[5-bromo-2-(2-fluorobenzyl)oxy-benzyl]amino]ethyl]furazan-3-carboxamide;hydrochloride], 5.09.
The same measure, in the same setting: the result for `Nc1nonc1C(=O)NCCNCc1cc(Br)ccc1OCc1ccc(F)cc1` [4-amino-N-[2-[[5-bromo-2-(4-fluorobenzyl)oxy-benzyl]amino]ethyl]furazan-3-carboxamide;hydrochloride] reads 5.16.
As to `CCCCOc1ncnc2c1[nH]c1ccc(F)cc12` [4-butoxy-8-fluoranyl-5H-pyrimido[5,4-b]indole], the pEC50 was 5.56.
Still for that read-out and setting: the result for `CCCCOc1ccc(S(=O)(=O)Nc2cccnc2)cc1` [4-butoxy-N-(3-pyridinyl)benzenesulfonamide] reads 5.02.
On to `Cc1ccc(S(=O)(=O)Nc2ccc3ncccc3c2)cc1` [4-methyl-N-(6-quinolinyl)benzenesulfonamide], for which the pEC50 is 5.11. The pEC50 values of the last two compounds are within 0.2 log units of each other.
Same read-out and setting: the result for `Cc1sc2ncnc(Sc3nnnn3-c3ccccc3)c2c1C` [5,6-dimethyl-4-(1-phenyltetrazol-5-yl)sulfanylthieno[2,3-d]pyrimidine] reads less than 4.02; that for `c1ccc(C(Cc2nc(-c3cccnc3)no2)c2ccccc2)cc1` [5-(2,2-diphenylethyl)-3-(3-pyridinyl)-1,2,4-oxadiazole], 5.55; that for `COc1ccc(-c2noc(-c3cccc(OC)c3OC)n2)cc1OC` [5-(2,3-dimethoxyphenyl)-3-(3,4-dimethoxyphenyl)-1,2,4-oxadiazole], 5.84.
On to `COc1ccc(-c2noc(-c3ccccc3F)n2)cc1` [5-(2-fluorophenyl)-3-(4-methoxyphenyl)-1,2,4-oxadiazole], for which the pEC50 was 5.13.
Turning to `O=C(Nc1ccc(O)cc1)c1cc2n(n1)C(C(F)(F)F)CC(c1ccco1)N2` (configuration not stated) [5-(2-furanyl)-N-(4-hydroxyphenyl)-7-(trifluoromethyl)-1,5,6,7-tetrahydropyrazolo[1,5-a]pyrimidine-2-carboxamide], the pEC50 was 5.44.
Turning to `COc1ccccc1-c1nc(-c2cccc(C)c2)no1` [5-(2-methoxyphenyl)-3-(3-methylphenyl)-1,2,4-oxadiazole], the pEC50 was 5.87.
For the compound `COc1ccccc1-c1cc(C(=O)Nc2ccccc2SC)no1` [5-(2-methoxyphenyl)-N-(2-methylsulfanylphenyl)-1,2-oxazole-3-carboxamide], the pEC50 is 5.20.

Staying with this experiment, now noted: inactive by the depositor's call.
Take `Cc1ccc(Cl)cc1N1CCN(C(=O)COc2ccc(S(=O)(=O)NC(C)C)cc2)CC1` [4-[2-[4-(5-chloranyl-2-methyl-phenyl)piperazin-1-yl]-2-oxidanylidene-ethoxy]-N-propan-2-yl-benzenesulfonamide]: the pEC50 was 4.92.
On the same count and under the same terms, the result for `CCOC(=O)c1ccc(NC(=O)CCc2nc(-c3ccc(Cl)cc3)no2)cc1` [4-[3-[3-(4-chlorophenyl)-1,2,4-oxadiazol-5-yl]propanoylamino]benzoic acid ethyl ester] reads 4.87.
Same read-out and setting: then `Cn1nc(CC(=O)Nc2ccc(N3CCN(C(=O)OC(C)(C)C)CC3)cc2)c2ccccc2c1=O` [4-[4-[[2-(3-methyl-4-oxo-1-phthalazinyl)-1-oxoethyl]amino]phenyl]-1-piperazinecarboxylic acid tert-butyl ester], with 4.88.
On the same count and under the same terms, the result for `CCOC(=O)N1CCC(NC(=O)C2CCCN(Cc3nc(-c4cccc(Cl)c4)oc3C)C2)CC1` (configuration not stated) [4-[[1-[[2-(3-chlorophenyl)-5-methyl-oxazol-4-yl]methyl]nipecotoyl]amino]piperidine-1-carboxylic acid ethyl ester] reads 4.74; that for `COC(=O)c1ccc(C(c2c(N)n(CC(C)C)c(=O)[nH]c2=O)N2CCN(c3ccccc3)CC2)cc1` (configuration not stated) [4-[[6-amino-1-(2-methylpropyl)-2,4-dioxo-5-pyrimidinyl]-(4-phenyl-1-piperazinyl)methyl]benzoic acid methyl ester], 4.02.
Compound `Cc1ccc(S(=O)(=O)n2nc(C)c(Br)c2C)c(C)c1C` [4-bromanyl-3,5-dimethyl-1-(2,3,4-trimethylphenyl)sulfonyl-pyrazole] gave a pEC50 of 4.06.
`CCCCOc1ccc(S(=O)(=O)Nc2cc(OC)ccc2OC)cc1` [4-butoxy-N-(2,5-dimethoxyphenyl)benzenesulfonamide] gave a negative-log EC50 (pEC50) of 4.89.
On the same count and under the same terms, the result for `CCN(CC)S(=O)(=O)c1cc(C(=O)Nc2ccncc2)ccc1Cl` [4-chloranyl-3-(diethylsulfamoyl)-N-pyridin-4-yl-benzamide] reads 4.28.
`Cc1cc(N2CCOCC2)nc(NCc2ccccc2)n1` [4-methyl-6-(4-morpholinyl)-N-(phenylmethyl)-2-pyrimidinamine] had a pEC50 of 4.88. This pEC50 lies 0.60 log units higher than the previous one.
The same measure, in the same setting: then `Cc1nc2ncnn2c(N2CCN(c3cccc(C(F)(F)F)c3)CC2)c1C` [5,6-Dimethyl-7-[4-(3-trifluoromethyl-phenyl)-piperazin-1-yl]-[1,2,4]triazolo[1,5-a]pyrimidine], with 4.85.

Broadly, the pEC50 is the EC50 on a negative log10 scale, so that one unit is a factor of ten.
